Experimental data as given in patent US20090298780A1, “Methods To Produce Lung Surfactant Formulations Via Lyophilization And Formulations And Uses Thereof” (priority 2004, published 2009).
Values after ≈ are worked out from the molar mass of the structure shown.

How the values were obtained:
[1] = Achievable dissolution concentrations of individual components in 60% TBA cosolvent without NaCl; format: physicochemical; conditions: 60% TBA without NaCl; for Measured Concentration (mg/ml) AVG: average of 3, room temperature; for Measured Concentration (mg/ml) 1: replicate 1; for Measured Concentration (mg/ml) 2: replicate 2; for Measured Concentration (mg/ml) 3: replicate 3
[2] = Individual component solubility in t-butanol/water solutions (HPLC); conditions: about 37° C.

Measured Concentration (mg/ml) AVG [1] | Measured Concentration (mg/ml) 1 [1] | Measured Concentration (mg/ml) 2 [1] | Measured Concentration (mg/ml) 3 [1] | Solubility (mg/ml) 50% ([2]; 50% t-butanol/water) | Solubility (mg/ml) 80% ([2]; 80% t-butanol/water) | Solubility (mg/ml) 90% ([2]; 90% t-butanol/water) | Solubility (mg/ml) 95% ([2]; 95% t-butanol/water) | Solubility (mg/ml) 97.5% ([2]; 97.5% t-butanol/water) | Solubility (mg/ml) 99% ([2]; 99% t-butanol/water) | Solubility (mg/ml) 100% ([2]; 100% t-butanol) | SMILES
35.0 mg/mL | 34.8 mg/mL | 35.0 mg/mL | 35.2 mg/mL |  |  |  |  |  |  |  | CCCCCCCCCCCCCCCC(=O)OC[C@H](COP(=O)([O-])OCC[N+](C)(C)C)OC(=O)CCCCCCCCCCCCCCC [DPPC, dipalmitoyl phosphatidylcholine]
290.9 mg/mL | 298.4 mg/mL | 283.7 mg/mL | 290.6 mg/mL | >47 mg/mL | >119 mg/mL | >160 mg/mL | 34 mg/mL (≈ 45.4 mM) | 20 mg/mL (≈ 26.7 mM) | <5 mg/mL | <5 mg/mL | CCCCCCCC/C=C\CCCCCCCC(=O)O[C@H](COC(=O)CCCCCCCCCCCCCCC)COP(=O)(O)OCC(O)CO (stereo partly drawn) [POPG, palmitoyloleoyl phosphatidylglycerol]
